Reference: the supplement of paper PMC10307832

Columns and labels:
Bleomycin + Trametinib = compound: CC1=C(N=C(N=C1N)[C@H](CC(=O)N)NC[C@@H](C(=O)N)N)C(=O)N[C@@H]([C@H](C2=CN=CN2)OC3C(C(C(C(O3)CO)O)O)OC4C(C(C(C(O4)CO)O)OC(=O)N)O)C(=O)N[C@H](C)[C@H]([C@H](C)C(=O)N[C@@H]([C@@H](C)O)C(=O)NCCC5=NC(=CS5)C6=NC(=CS6)C(=O)NCCC[S+](C)C)O [Bleomycin] + CC(=O)Nc1cccc(-n2c(=O)n(C3CC3)c(=O)c3c(Nc4ccc(I)cc4F)n(C)c(=O)c(C)c32)c1 [Trametinib] (partner 0.02 µM); test: relative viability (nuclei count vs DMSO), 5 days (fraction); higher = more cells survive; details: main component drawn
Procedure, shortened: (§1)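 Lung cancer cell lines were seeded in 1536-well plates and dosed by pin tool the next day, with either a single drug or a fixed anchor-drug dose combined with five library-drug doses (not always all listed) spaced in √10 steps. Five days later, one step fixed the cells and stained their nuclei (final 0.05% Triton X-100, 1% formaldehyde, 1 ug/ml Hoechst), and nuclei were counted on 4× images. Relative viability is the nuclei count in treated wells divided by the count in vehicle wells, and each value is the median of duplicate plates.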

Etoposide + Dasatinib = compound: COc1cc([C@@H]2c3cc4c(cc3[C@@H](O[C@@H]3O[C@@H]5CO[C@@H](C)O[C@H]5[C@H](O)[C@H]3O)[C@H]3COC(=O)[C@H]23)OCO4)cc(OC)c1O [Etoposide] + Cc1nc(Nc2ncc(C(=O)Nc3c(C)cccc3Cl)s2)cc(N2CCN(CCO)CC2)n1 [Dasatinib] (partner 0.075 µM); test: as above
Procedure, shortened: as §1

Cell Line	relative viability (Bleomycin + Trametinib; first compound 0.01 µM)	relative viability (Bleomycin + Trametinib; first compound 0.03162 µM)	relative viability (Bleomycin + Trametinib; first compound 0.1 µM)	relative viability (Bleomycin + Trametinib; first compound 0.3162 µM)	relative viability (Bleomycin + Trametinib; first compound 1 µM)	relative viability (Etoposide + Dasatinib; first compound 0.01 µM)	relative viability (Etoposide + Dasatinib; first compound 0.03162 µM)	relative viability (Etoposide + Dasatinib; first compound 0.1 µM)	relative viability (Etoposide + Dasatinib; first compound 0.3162 µM)	relative viability (Etoposide + Dasatinib; first compound 1 µM)
NCI-H2085	0.549	0.514	0.384	0.243	0.226	0.219	0.241	0.226	0.23	0.197
NCI-H838	0.432	0.246	0.186	0.154	0.118	0.338	0.295	0.219	0.271	0.285
NCI-H460	0.107	0.0848	0.0692	0.0357	0.0155	0.432	0.509	0.285	0.132	0.0414
LOU-NH91	0.669	0.547	0.484	0.409	0.357	0.579	0.601	0.492	0.566	0.395
NCI-H322M	0.477	0.524	0.479	0.385	0.504	0.272	0.237	0.232	0.26	0.254
NCI-H520	0.673	0.608	0.814	0.547	0.394	0.22	0.239	0.181	0.208	0.269
NCI-H661	0.546	0.484	0.477	0.392	0.292	0.787	1.02	0.671	0.586	0.306
NCI-H727	0.376	0.321	0.392	0.404	0.406	0.4	0.355		0.37	0.408
NCI-H1793	0.442	0.413	0.382	0.262	0.194	0.402	0.348		0.419	0.214
NCI-H1734	0.518	0.537	0.397	0.263	0.163	0.415	0.449	0.312	0.436	0.21
LXF-289	0.599	0.664	0.634	0.459	0.2	0.209	0.217	0.231	0.206	0.0795
H3255	0.575	0.506	0.629	0.485	0.357	0.424	0.367	0.345	0.306	0.274
201T	0.697	0.731	0.673	0.598	0.555	0.639	0.655	0.524	0.548	0.477
NCI-H2228	0.537	0.468	0.431	0.269	0.26	0.61	0.473	0.306	0.418	0.131
HOP-62	0.34	0.278	0.264	0.203	0.159	0.584	0.676	0.492	0.621	0.363
CAL-12T	0.339	0.326	0.294	0.174	0.18	0.345	0.473	0.351	0.396	0.196
NCI-H596	0.674	0.562	0.423	0.38	0.379	0.608	0.657	0.543	0.647	0.507
NCI-H1755	0.734	0.726	0.78	0.665	0.61	0.433	0.452	0.469	0.413	0.394
NCI-H2023	0.277	0.383	0.363	0.148	0.129	0.492	0.554	0.378	0.326	0.125
NCI-H2009	0.296	0.275	0.276	0.258	0.224	0.288	0.313	0.218	0.282	0.207
